Experimental data: patent publication US20250276069A1, “HETEROBIFUNCTIONAL COMPOSITIONS FOR TARGETED PROTEIN DEGRADATION AND METHODS FOR THEIR USE” (THE SCRIPPS RESEARCH INSTITUTE, priority 2021, published 2025)
Entries after “also recorded” stand apart in the source; their conditions may differ.

System: HCC1806 cells
Experiment: TMT MS quantitative proteomics of live cells treated with FragTAC probes (HCC1806)
Format: cell-based, Homo Sapiens
Details: for Proteins targeted (downregulated) by FragTAC probe: value = downregulated protein; for Downregulated proteins targeted by FragTAC probes (protein listed for the probe code): cell line not given
Procedure: Mammalian cell culture: MDA-MB-231 cells (ATCC) were maintained in DMEM supplemented with 10% (v/v) fetal bovine serum (FBS), 1% (v/v) penicillin/streptomycin, and 2 mM glutamine. HCC1806 cells (ATCC) were maintained in RPMI supplemented with 10% (v/v) fetal bovine serum (FBS), 1% (v/v) penicillin/streptomycin, and 2 mM glutamine. All cell lines were grown at 37° C. in a humidified 5% CO2 atmosphere.
Treatment of Live Cells with FragTAC Probes: Separate 6 cm (for gel-based analyses) or 10 cm (for MS-based analyses) dishes of MDA-MB-231 cells or HCC1806 cells were grown to 80-95% confluency with DMEM media and RPMI media respectively. The growth medium was aspirated, and the cells were washed with Dulbecco's phosphate buffered saline (DPBS). The cells were incubated with serum-free media containing fragment probes (200 μM) or control probes (200 μM) for 6 hours at 37° C. under a 5% CO2 atmosphere. The cultures were scraped, washed with cold DPBS, and collected into 15 mL centrifuge tubes, then transferred to 1.5 mL Eppendorf tubes. The cell suspensions were centrifuged (1,400 g, 3 min) and the pellets were stored at −80° C. until the next stage of processing.
Sample preparation for TMT MS Quantitative Proteomics: For treatment of cell lysates, cells were collected, cell pellets were resuspended in 100 μL DPBS containing 1× Halt protease inhibitor cocktail, and lysed by sonication (15 ms on, 40 ms off, 15% amplitude, 1 s total). Protein concentrations were normalized (2 mg/mL in 100 μL with cold DPBS) using the Lowry Protein Assay (Pierce). Urea (48 mg) was weighed for each sample in 2 mL LoBind Eppendorf tubes and cell lysates (100 μL=200 μg) were added (final urea concentration=8 M). Pellets were resuspended in a freshly prepared 1:1 solution (50 μL) TCEP (200 mM in DPBS) and K2CO3 (600 mM in DPBS) and incubated (30 min, 37° C.) while shaking. After reaction, a solution of freshly prepared iodoacetamide (70 μL, 400 mM in DPBS) was added and incubated for 30 min at room temperature while protected from light. After reaction, 1.8 mL of cold 3:1:2 MeOH/CHCl3/H2O solution was added to each tube, and the samples were centrifuged (10,000×g, 10 min, 4° C.), forming a disc. The supernatant was carefully removed, MeOH (600 μL) was added, samples were centrifuged as previously described and the supernatant was removed. Cell pellets were resuspended in TEAB (160 μL, 100 mM, pH 8.5) and sonicated as described previously. Endoproteinase LysC (20 μL, ½ vial, 10 μg dissolved in 220 μL of 100 mM TEAB pH 8.5) was added to each and incubated at 37° C. for 2 h with shaking. Sequencing-grade modified porcine trypsin (20 μL, 1 vial, 20 μg dissolved in 220 μL of 100 mM TEAB pH 8.5), a solution of Protease Max (2 μL, 1% (w/v) in 100 mM TEAB pH 8.5) and a solution of CaCl2) (2 μL, 100 mM) were added to the samples and incubated at 37° C. overnight (14 h) with shaking. The digest was separated by centrifugation (12,000×g, 10 min, 4° C.). Peptide concentration was determined using Pierce Quantitative Fluorometric Peptide Assay Kit (Thermo Fisher Scientific, 23290) according to manufacturer's instructions. MS-grade acetonitrile (12.5 μL) was added to each and samples were labeled with respective TMT 10 plex isotope (8 μL, 20 μg/μL) for 1 h with occasional vortexing at RT. To quench, hydroxylamine (3 μL, 5% v/v) was added to each sample, vortexed, and incubated for 15 min at RT. Formic acid (5 μL) was added to each tube to acidify and the samples were dried under vacuum centrifugation. The samples were combined by redissolving the contents of one tube in a solution of trifluoroacetic acid (TFA, 400 μL, 0.1% in water) and transferred into each sample until all samples were redissolved. The stepwise process was repeated with formic acid (Buffer A, 200 μL, 0.1% in water) for a final volume of 600 μL. […]

[1] = protein with 2 unique peptides or more, depleted 2-fold or more relative to DMSO control (P value <0.05)
[2] = TMT proteomics, targets with 2 unique peptides or more and depleted 2-fold or more relative to DMSO control (P value <0.05)

## Cc1ncsc1-c1ccc(CNC(=O)[C@@H]2C[C@@H](O)CN2C(=O)[C@@H](NC(=O)CCOCCOCCOCCC(=O)N2CCN(C(c3ccccc3)c3ccccc3)C[C@@H]2c2ccccc2)C(C)(C)C)cc1 [CMC-6-123, (2S,4R)-1-((S)-16-((S)-4-benzhydryl-2-phenylpiperazin-1-yl)-2-(tert-butyl)-4,16-dioxo-7,10,13-trioxa-3-azahexadecanoyl)-4-hydroxy-N-(4-(4-methylthiazol-5-yl)benzyl)pyrrolidine-2-carboxamide]
[1]
  Proteins targeted (downregulated) by FragTAC probe: ZBTB1; also recorded: ZNF217

## Cc1ncsc1-c1ccc(CNC(=O)[C@@H]2C[C@@H](O)CN2C(=O)[C@@H](NC(=O)CCOCCC(=O)N2CCN(C(c3ccccc3)c3ccccc3)CC2)C(C)(C)C)cc1 [IF-049, (2S,4R)-1-((S)-2-(3-(3-(4-benzhydrylpiperazin-1-yl)-3-oxopropoxy)propanamido)-3,3-dimethylbutanoyl)-4-hydroxy-N-(4-(4-methylthiazol-5-yl)benzyl)pyrrolidine-2-carboxamide]
[1]
  Proteins targeted (downregulated) by FragTAC probe: YIPF3; also recorded: YLPM1; also recorded: ZNF185

## Cc1ncsc1-c1ccc(CNC(=O)[C@@H]2C[C@@H](O)CN2C(=O)[C@@H](NC(=O)CCOCCOCCOCCC(=O)N2CCN(CC3=C(c4ccc(Cl)cc4)CC(C)(C)CC3)CC2)C(C)(C)C)cc1 [IF-060, (2S,4R)-1-((S)-2-(tert-butyl)-16-(4-((4′-chloro-5,5-dimethyl-3,4,5,6-tetrahydro-[1,1′-biphenyl]-2-yl)methyl)piperazin-1-yl)-4,16-dioxo-7,10,13-trioxa-3-azahexadecanoyl)-4-hydroxy-N-(4-(4-methylthiazol-5-yl)benzyl)pyrrolidine-2-carboxamide]
[2]
  Downregulated proteins targeted by FragTAC probes (protein listed for the probe code): GHITM

## CCn1c2ccccc2c2ccc(CN(C(=O)CCOCCOCCOCCC(=O)N[C@H](C(=O)N3C[C@H](O)C[C@H]3C(=O)NCc3ccc(-c4scnc4C)cc3)C(C)(C)C)C3CCCC3)cc21 [IF-062, (2S,4R)-1-((S)-17-(tert-butyl)-2-cyclopentyl-1-(9-ethyl-9H-carbazol-2-yl)-3,15-dioxo-6,9,12-trioxa-2,16-diazaoctadecan-18-oyl)-4-hydroxy-N-(4-(4-methylthiazol-5-yl)benzyl)pyrrolidine-2-carboxamide]
[2]
  Downregulated proteins targeted by FragTAC probes (protein listed for the probe code): GHITM

## Cc1ncsc1-c1ccc(CNC(=O)[C@@H]2C[C@@H](O)CN2C(=O)[C@@H](NC(=O)CCOCCOCCOCCC(=O)NCCc2cn(Cc3ccccc3)c3ccccc23)C(C)(C)C)cc1 [IF-063, (2S,4R)-1-((S)-19-(1-benzyl-1H-indol-3-yl)-2-(tert-butyl)-4,16-dioxo-7,10,13-trioxa-3,17-diazanonadecanoyl)-4-hydroxy-N-(4-(4-methylthiazol-5-yl)benzyl)pyrrolidine-2-carboxamide]
[2]
  Proteins targeted (downregulated) by FragTAC probe: TMBIM6

## Cc1ncsc1-c1ccc(CNC(=O)[C@@H]2C[C@@H](O)CN2C(=O)[C@@H](NC(=O)CCOCCOCCOCCC(=O)N2CCCC2c2noc(Cc3ccc(Br)cc3)n2)C(C)(C)C)cc1 (stereo partly drawn) [IF-064, (2S,4R)-1-((2S)-16-(2-(5-(4-bromobenzyl)-1,2,4-oxadiazol-3-yl)pyrrolidin-1-yl)-2-(tert-butyl)-4,16-dioxo-7,10,13-trioxa-3-azahexadecanoyl)-4-hydroxy-N-(4-(4-methylthiazol-5-yl)benzyl)pyrrolidine-2-carboxamide]
[2]
  Downregulated proteins targeted by FragTAC probes (protein listed for the probe code): GHITM

## Cc1ncsc1-c1ccc(CNC(=O)[C@@H]2C[C@@H](O)CN2C(=O)[C@@H](NC(=O)CCOCCOCCOCCC(=O)NC2=NC(c3ccccc3)c3ccccc3NC2=O)C(C)(C)C)cc1 (stereo partly drawn) [IF-065, (2S,4R)-1-((2S)-2-(tert-butyl)-4,16-dioxo-16-((2-oxo-5-phenyl-2,5-dihydro-1H-benzo[e][1,4]diazepin-3-yl)amino)-7,10,13-trioxa-3-azahexadecanoyl)-4-hydroxy-N-(4-(4-methylthiazol-5-yl)benzyl)pyrrolidine-2-carboxamide]
[2]
  Downregulated proteins targeted by FragTAC probes (protein listed for the probe code): BRD2
  Proteins targeted (downregulated) by FragTAC probe: TMBIM6

## Cc1ncsc1-c1ccc(CNC(=O)[C@@H]2C[C@@H](O)CN2C(=O)[C@@H](NC(=O)CCOCCOCCOCCNC(=O)CCc2nc(-c3ccccc3)c(-c3ccccc3)o2)C(C)(C)C)cc1 [IF-072, (2S,4R)-1-((S)-2-(tert-butyl)-19-(4,5-diphenyloxazol-2-yl)-4,17-dioxo-7,10,13-trioxa-3,16-diazanonadecanoyl)-4-hydroxy-N-(4-(4-methylthiazol-5-yl)benzyl)pyrrolidine-2-carboxamide]
[1]
  Proteins targeted (downregulated) by FragTAC probe: ZC3H14; also recorded: ZNF800

## Cc1ncsc1-c1ccc(CNC(=O)[C@@H]2C[C@@H](O)CN2C(=O)[C@@H](NC(=O)CCOCCOCCOCCNC(=O)c2[nH]c3ccc(Cl)cc3c2-c2ccccc2)C(C)(C)C)cc1 [IF-073, 5-chloro-N-((S)-14-((2S,4R)-4-hydroxy-2-((4-(4-methylthiazol-5-yl)benzyl)carbamoyl)pyrrolidine-1-carbonyl)-15,15-dimethyl-12-oxo-3,6,9-trioxa-13-azahexadecyl)-3-phenyl-1H-indole-2-carboxamide]
[2]
  Downregulated proteins targeted by FragTAC probes (protein listed for the probe code): CYP1B1 and FAM177A1 and GHITM and LGMN
  Proteins targeted (downregulated) by FragTAC probe: NPC2 and PCLAF and RPLP1 and SETX and TXNIP

## Cc1ccc(S(=O)(=O)N2CCN(C(=O)CCCCC(=O)N[C@H](C(=O)N3C[C@H](O)C[C@H]3C(=O)NCc3ccc(-c4scnc4C)cc3)C(C)(C)C)CC2)cc1 [IF-080, (2S,4R)-1-((S)-3,3-dimethyl-2-(6-oxo-6-(4-tosylpiperazin-1-yl)hexanamido)butanoyl)-4-hydroxy-N-(4-(4-methylthiazol-5-yl)benzyl)pyrrolidine-2-carboxamide]
[2]
  Downregulated proteins targeted by FragTAC probes (protein listed for the probe code): CTSZ and INCENP and KIF20A and KIF22 and ANLN
  Proteins targeted (downregulated) by FragTAC probe: PRC1 and RACGAP1 and TPX2 and TXNIP and UHRF1
[1]
  Proteins targeted (downregulated) by FragTAC probe: ZBTB11

## Cc1ncsc1-c1ccc(CNC(=O)[C@@H]2C[C@@H](O)CN2C(=O)[C@@H](NC(=O)CCOCCOCCC(=O)N2CCN(C(c3ccccc3)c3ccccc3)CC2)C(C)(C)C)cc1 [LPC020, (2S,4R)-1-((S)-2-(3-(2-(3-(4-benzhydrylpiperazin-1-yl)-3-oxopropoxy)ethoxy)propanamido)-3,3-dimethylbutanoyl)-4-hydroxy-N-(4-(4-methylthiazol-5-yl)benzyl)pyrrolidine-2-carboxamide]
[1]
  Proteins targeted (downregulated) by FragTAC probe: YIPF3 and ZC3H13 and ZC3HC1 and ZFR and ZMYM4 and ZNF638 and ZNF830

## Cc1ncsc1-c1ccc(CNC(=O)[C@@H]2C[C@@H](O)CN2C(=O)[C@@H](NC(=O)CCOCCOCCC(=O)NCCC(c2ccccc2)c2ccccc2)C(C)(C)C)cc1 [LPC022, (2S,4R)-1-((S)-2-(tert-butyl)-4,13-dioxo-17,17-diphenyl-7,10-dioxa-3,14-diazaheptadecanoyl)-4-hydroxy-N-(4-(4-methylthiazol-5-yl)benzyl)pyrrolidine-2-carboxamide]
[1]
  Proteins targeted (downregulated) by FragTAC probe: ZFR and ZMYM4
